Laboratory results reported in PMC4716540 (British Journal of Cancer, 2015).
“Also recorded” adds a separate entry of the source.

Tested on: patients with confirmed relapsed/refractory MM, CLL, or NHL
Assay: Phase I safety and tolerability: adverse events, DLT, MTD, RP2D
Format: in vivo, human

SMILES: CCc1c(O)cc(O)c(C(=O)c2ccc(OCCN3CCOCC3)c(OC)c2)c1CC(=O)N(CCOC)CCOC [KW-2478]
- Abdominal pain (any AE) (99 mg m^–2 (n=4)): 1 (25.0) No. of patients (%)
- Acne (any AE) (99 mg m^–2 (n=4)): 0 No. of patients (%)
- Anaemia (any AE) (99 mg m^–2 (n=4)): 0 No. of patients (%)
- Anorexia (any AE) (99 mg m^–2 (n=4)): 0 No. of patients (%)
- Back pain (any AE) (99 mg m^–2 (n=4)): 2 (50.0) No. of patients (%)
- Diarrhoea (any AE) (99 mg m^–2 (n=4)): 2 (50.0) No. of patients (%)
- Dizziness (any AE) (99 mg m^–2 (n=4)): 0 No. of patients (%)
- Fatigue (any AE) (99 mg m^–2 (n=4)): 2 (50.0) No. of patients (%)
- Haemoglobin decreased (any AE) (99 mg m^–2 (n=4)): 0 No. of patients (%)
- Hair disorder (any AE) (99 mg m^–2 (n=4)): 0 No. of patients (%)
- Headache (any AE) (99 mg m^–2 (n=4)): 2 (50.0) No. of patients (%)
- Herpes simplex infection (any AE) (99 mg m^–2 (n=4)): 0 No. of patients (%)
- Hypertension (any AE) (99 mg m^–2 (n=4)): 1 (25.0) No. of patients (%)
- LRTI (any AE) (99 mg m^–2 (n=4)): 0 No. of patients (%)
- Musculoskeletal chest pain (any AE) (99 mg m^–2 (n=4)): 1 (25.0) No. of patients (%)
- Nausea (any AE) (99 mg m^–2 (n=4)): 1 (25.0) No. of patients (%)
- Oral herpes (any AE) (99 mg m^–2 (n=4)): 1 (25.0) No. of patients (%)
- Rhinitis (any AE) (99 mg m^–2 (n=4)): 0 No. of patients (%)
- Serious AE (99 mg m^–2 (n=4)): 2 (50) No. of patients (%)
- Treatment-related AE (99 mg m^–2 (n=4)): 3 (75.0) No. of patients (%)
- Vomiting (any AE) (99 mg m^–2 (n=4)): 1 (25.0) No. of patients (%)
- AE (treatment-emergent) (132 mg m^–2 (n=6)): 6 (100.0) No. of patients (%)
- Abdominal pain (any AE) (132 mg m^–2 (n=6)): 2 (33.3) No. of patients (%)
- Acne (any AE) (132 mg m^–2 (n=6)): 0 No. of patients (%)
- Anaemia (any AE) (132 mg m^–2 (n=6)): 0 No. of patients (%)
- Anorexia (any AE) (132 mg m^–2 (n=6)): 1 (16.7) No. of patients (%)
- Back pain (any AE) (132 mg m^–2 (n=6)): 1 (16.7) No. of patients (%)
- Diarrhoea (any AE) (132 mg m^–2 (n=6)): 3 (50.0) No. of patients (%)
- Dizziness (any AE) (132 mg m^–2 (n=6)): 1 (16.7) No. of patients (%)
- Fatigue (any AE) (132 mg m^–2 (n=6)): 1 (16.7) No. of patients (%)
- Haemoglobin decreased (any AE) (132 mg m^–2 (n=6)): 2 (33.3) No. of patients (%)
- Hair disorder (any AE) (132 mg m^–2 (n=6)): 0 No. of patients (%)
- Headache (any AE) (132 mg m^–2 (n=6)): 4 (66.7) No. of patients (%)
- Herpes simplex infection (any AE) (132 mg m^–2 (n=6)): 0 No. of patients (%)
- Hypertension (any AE) (132 mg m^–2 (n=6)): 2 (33.3) No. of patients (%)
- LRTI (any AE) (132 mg m^–2 (n=6)): 1 (16.7) No. of patients (%)
- Musculoskeletal chest pain (any AE) (132 mg m^–2 (n=6)): 2 (33.3) No. of patients (%)
- Nausea (any AE) (132 mg m^–2 (n=6)): 2 (33.3) No. of patients (%)
- Oral herpes (any AE) (132 mg m^–2 (n=6)): 0 No. of patients (%)
- Rhinitis (any AE) (132 mg m^–2 (n=6)): 4 (66.7) No. of patients (%)
- Serious AE (132 mg m^–2 (n=6)): 3 (50.0) No. of patients (%)
- Treatment-related AE (132 mg m^–2 (n=6)): 5 (83.3) No. of patients (%)
- Vomiting (any AE) (132 mg m^–2 (n=6)): 3 (50.0) No. of patients (%)
- Number of treatment-related AEs per patient (average) (176 mg m^–2): 9.2
- AE (treatment-emergent) (176 mg m^–2 (n=7)): 7 (100.0) No. of patients (%)
- Abdominal pain (any AE) (176 mg m^–2 (n=7)): 0 No. of patients (%)
- Acne (any AE) (176 mg m^–2 (n=7)): 0 No. of patients (%)
- Anaemia (any AE) (176 mg m^–2 (n=7)): 3 (42.9) No. of patients (%)
- Anorexia (any AE) (176 mg m^–2 (n=7)): 2 (28.6) No. of patients (%)
- Back pain (any AE) (176 mg m^–2 (n=7)): 0 No. of patients (%)
- Diarrhoea (any AE) (176 mg m^–2 (n=7)): 4 (57.1) No. of patients (%)
- Dizziness (any AE) (176 mg m^–2 (n=7)): 0 No. of patients (%)
- Fatigue (any AE) (176 mg m^–2 (n=7)): 4 (57.1) No. of patients (%)
- Haemoglobin decreased (any AE) (176 mg m^–2 (n=7)): 0 No. of patients (%)
- Hair disorder (any AE) (176 mg m^–2 (n=7)): 0 No. of patients (%)
- Headache (any AE) (176 mg m^–2 (n=7)): 2 (28.6) No. of patients (%)
- Herpes simplex infection (any AE) (176 mg m^–2 (n=7)): 1 (14.3) No. of patients (%)
- Hypertension (any AE) (176 mg m^–2 (n=7)): 0 No. of patients (%)
- LRTI (any AE) (176 mg m^–2 (n=7)): 2 (28.6) No. of patients (%)
- Musculoskeletal chest pain (any AE) (176 mg m^–2 (n=7)): 1 (14.3) No. of patients (%)
- Nausea (any AE) (176 mg m^–2 (n=7)): 0 No. of patients (%)
- Oral herpes (any AE) (176 mg m^–2 (n=7)): 1 (14.3) No. of patients (%)
- Rhinitis (any AE) (176 mg m^–2 (n=7)): 3 (42.9) No. of patients (%)
- Serious AE (176 mg m^–2 (n=7)): 1 (14.3) No. of patients (%)
- Treatment-related AE (176 mg m^–2 (n=7)): 5 (71.4) No. of patients (%)
- Vomiting (any AE) (176 mg m^–2 (n=7)): 1 (14.3) No. of patients (%)
- Dose-limiting toxicities (DLTs) (14–176 mg m^–2 iv once daily days 1–5 of 14-day cycle, first cycle): no dose-limiting toxicities; also recorded: no DLTs
- Changes in haematological or biochemistry values, vital signs, body weight, ECG results (all doses): no clinically meaningful changes
- Neurotoxicity and thrombocytopenia (all doses): no apparent neurotoxicity nor significant thrombocytopenia
- Tolerability (all doses): safe and well tolerated
- Treatment-related AEs ⩾grade 3 (all doses): rare
- Total number of treatment-related AEs reported (all doses, all cycles): 127
- Total number of AEs reported (all doses, all cycles, 27 patients): 282
- AE: diarrhoea (all doses, all cycles, N=27): 48.1%
- AE: fatigue (all doses, all cycles, N=27): 33.3%
- AE: headache (all doses, all cycles, N=27): 40.7%
- AE: rhinitis (all doses, all cycles, N=27): 40.7%
- Patients reporting AEs (all doses, all cycles, N=27): 100%
- Patients reporting treatment-related AEs (all doses, all cycles, N=27): 77.8%
- Mean blood pressure (all patients during the study): no apparent dose-related increase
- Maximum-tolerated dose (MTD) (doses up to 176 mg m^–2): not reached
- Grade 3/4 AEs considered possibly treatment-related (lethargy (two episodes) and syncope, QT prolongation, neutrophil decrease): five events in three patients
- Recommended phase II dose (RP2D) (once daily on days 1–5 every 2 weeks, highest dose tested): 176 mg m^–2
- Treatment-related AE: diarrhoea (per patient, all doses, N=27): 33.3%
- Treatment-related AE: dizziness (per patient, all doses, N=27): 7.4%
- Treatment-related AE: fatigue (per patient, all doses, N=27): 29.6%
- Treatment-related AE: headache (per patient, all doses, N=27): 25.9%
- Treatment-related AE: nausea (per patient, all doses, N=27): 14.8%
- Treatment-related AE: vomiting (per patient, all doses, N=27): 7.4%
- Deaths during the study, relation to study medication (two patients, bronchopneumonia and lower respiratory tract infection): unrelated to study medication
